Test results as given in ChEMBL document CHEMBL5113383, “Application of the All-Hydrocarbon Stapling Technique in the Design of Membrane-Active Peptides” (J Med Chem, 2022).
Positions of bridges follow the written chain, without caps; N, C: chain ends. Non-standard residues stand in square brackets, D forms with d. Residues, ends and D or L forms follow the SMILES beside them. S5 = C=CCCC[C@](C)(N)C(=O)O; Nle = CCCC[C@H](N)C(=O)O

What was measured:
[1] = Hemolytic activity in rabbit erythrocytes; format: toxicity, cell-based, Oryctolagus cuniculus, Erythrocyte
[2] = Hemolytic activity in human erythrocytes; format: toxicity, cell-based, Erythrocyte
[3] = Hemolytic activity in human erythrocytes incubated for 1 hr; format: toxicity, cell-based, Erythrocyte; conditions: read-out: Activity
[4] = Hemolytic activity in human erythrocytes incubated for 30 mins; format: toxicity, cell-based, Erythrocyte

## CC[C@H](C)[C@H](NC(=O)CNC(C)=O)C(=O)NCC(=O)N[C@@H](C)C(=O)N[C@H](C(=O)N[C@@H](CC(C)C)C(=O)N[C@@H](CCCCN)C(=O)N[C@H](C(=O)N[C@@H](CC(C)C)C(=O)N[C@H](C(=O)N[C@H](C(=O)NCC(=O)N[C@@H](CC(C)C)C(=O)N1CCC[C@H]1C(=O)N[C@]1(C)CCCCCC/C=C\CCC[C@@](C)(C(=O)N[C@@H](CCCCN)C(=O)N[C@@H](CCCNC(=N)N)C(=O)N[C@@H](CCC(N)=O)C(=O)N[C@@H](CCC(N)=O)C(N)=O)NC(=O)[C@H](CCCCN)NC(=O)[C@H]([C@@H](C)CC)NC(=O)[C@H](Cc2c[nH]c3ccccc23)NC(=O)[C@H](CO)NC(=O)[C@H]([C@@H](C)CC)NC(=O)[C@H](CC(C)C)NC1=O)[C@@H](C)O)[C@@H](C)O)C(C)C)C(C)C
[1]
  HC50: 700 nM

## CC[C@H](C)[C@H](NC(=O)CNC(C)=O)C(=O)NCC(=O)N[C@@H](C)C(=O)N[C@H](C(=O)N[C@@H](CC(C)C)C(=O)N[C@@H](CCCCN)C(=O)N[C@H](C(=O)N[C@@H](CC(C)C)C(=O)N[C@H](C(=O)N[C@H](C(=O)NCC(=O)N[C@@H](CC(C)C)C(=O)N1CCC[C@H]1C(=O)N[C@@H](C)C(=O)N[C@@H](CC(C)C)C(=O)N[C@H](C(=O)N[C@@H](CO)C(=O)N[C@@H](Cc1c[nH]c2ccccc12)C(=O)N[C@H](C(=O)N[C@@H](CCCCN)C(=O)N[C@@H](CCCNC(=N)N)C(=O)N[C@@H](CCCCN)C(=O)N[C@@H](CCCNC(=N)N)C(=O)N[C@@H](CCC(N)=O)C(=O)N[C@@H](CCC(N)=O)C(N)=O)[C@@H](C)CC)[C@@H](C)CC)[C@@H](C)CC)[C@@H](C)O)C(C)C)C(C)C
[1]
  HC50: 2600 nM

## CC[C@H](C)[C@H](NC(=O)CN)C(=O)N[C@@H](CCSC)C(=O)N[C@@H](CO)C(=O)N[C@@H](CO)C(=O)N[C@@H](CC(C)C)C(=O)N[C@@H](CCSC)C(=O)N[C@@H](CCCCN)C(=O)N[C@@H](CCCCN)C(=O)N[C@@H](CC(C)C)C(=O)N[C@@]1(C)CCC/C=C\CCC[C@@](C)(C(=O)N[C@@H](CCCCN)C(N)=O)NC(=O)[C@H]([C@@H](C)CC)NC(=O)[C@H](Cc2cnc[nH]2)NC(=O)[C@H](C)NC1=O (H-GIMSSLMKKL[S5]AHI[S5]K-NH2; staple (Z) 11-15)
[2]
  HC50: 125 µM

## CC(C)[C@@H]1NC(=O)[C@@](C)(NC(=O)[C@H](C)NC(=O)[C@H](CCCCN)NC(=O)CNC(=O)[C@H](Cc2ccccc2)NC(=O)[C@H](CCCCN)NC(=O)[C@H](CCCCN)NC(=O)[C@H](CCCCN)NC(=O)[C@H](CO)NC(=O)[C@H](Cc2cnc[nH]2)NC(=O)[C@]2(C)CCC/C=C\CCC[C@](C)(NC(=O)CN)C(=O)NCC(=O)N[C@@H](CCCCN)C(=O)N[C@@H](Cc3ccccc3)C(=O)N2)CCC/C=C\CCC[C@@](C)(C(=O)N[C@@H](C)C(=O)N[C@@H](CCCCN)C(=O)N[C@@H](CCCCN)C(N)=O)NC(=O)[C@H](CCC(=O)O)NC(=O)CNC1=O (H-G[S5]GKF[S5]HSKKKFGKA[S5]VGE[S5]AKK-NH2; staple (Z) 2-6, 16-20)
[2]
  HC50: > 400 µM
[3]
  hemolysis at 1 h: < 1%

## CC[C@H](C)[C@H](N)C(=O)N[C@@H](CC(=O)O)C(=O)N[C@@H](Cc1c[nH]c2ccccc12)C(=O)N[C@@H](CCCCN)C(=O)N[C@@H](CCCCN)C(=O)N[C@@]1(C)CCC/C=C\CCC[C@@](C)(C(=O)N[C@@H](CCCCN)C(=O)N[C@@H](CCC(N)=O)C(=O)N[C@H](C(=O)N[C@@H](CC(C)C)C(=O)O)[C@@H](C)CC)NC(=O)[C@H](C)NC(=O)[C@H](CC(=O)O)NC(=O)[C@H](CC(C)C)NC1=O (H-IDWKK[S5]LDA[S5]KQIL-OH; staple (Z) 6-10)
[4]
  HC50 at 0.5 h: 12.3 µM

## CC(C)C[C@@H]1NC(=O)[C@H](CCCCN)NC(=O)[C@H](Cc2c[nH]c3ccccc23)NC(=O)[C@@](C)(NC(=O)[C@@H](N)CCCCN)CCC/C=C\CCC[C@@](C)(C(=O)N[C@@H](CCCCN)C(N)=O)NC1=O (H-K[S5]WKL[S5]K-NH2; staple (Z) 2-6)
[4]
  HC50 at 0.5 h: < 1 µM

## CCCC[C@@H]1NC(=O)[C@H](CCCCN)NC(=O)[C@H](Cc2c[nH]c3ccccc23)NC(=O)[C@@](C)(NC(=O)[C@@H](N)CCCCN)CCC/C=C\CCC[C@@](C)(C(=O)N[C@@H](CCCCN)C(N)=O)NC1=O (H-K[S5]WK[Nle][S5]K-NH2; staple (Z) 2-6)
[4]
  HC50 at 0.5 h: 3.3 µM
